Test: xn = mol fraction of the nth substance listed

c1ccccc1 + CCCO
Settings	viscosity [mPa·s]
293.15 K, 101 kPa, x1 = 0.7	0.7259
295.15 K, 101 kPa, x2 = 0.0129	0.6231
295.15 K, 101 kPa, x2 = 0.01297	0.6234
295.15 K, 101 kPa, x2 = 0.02571	0.6203
295.15 K, 101 kPa, x2 = 0.0258	0.6203
295.15 K, 101 kPa, x2 = 0.02588	0.6203
295.15 K, 101 kPa, x2 = 0.03494	0.6193
295.15 K, 101 kPa, x2 = 0.04358	0.6193
295.15 K, 101 kPa, x2 = 0.06103	0.6204
295.15 K, 101 kPa, x2 = 0.1016	0.6265
295.15 K, 101 kPa, x2 = 0.2458	0.6758
295.15 K, 101 kPa, x2 = 0.5664	0.9778
295.15 K, 101 kPa, x2 = 0.9204	1.808
298.15 K, 100 kPa, x2 = 0.059	0.6108
298.15 K, 100 kPa, x2 = 0.1169	0.6226
298.15 K, 100 kPa, x2 = 0.2295	0.6135
298.15 K, 100 kPa, x2 = 0.2843	0.6582
298.15 K, 100 kPa, x2 = 0.3733	0.7116
298.15 K, 100 kPa, x2 = 0.5437	0.8989
298.15 K, 100 kPa, x2 = 0.6252	1.017
298.15 K, 100 kPa, x2 = 0.7044	1.166
298.15 K, 100 kPa, x2 = 0.7814	1.289
298.15 K, 100 kPa, x2 = 0.8563	1.469
298.15 K, 100 kPa, x2 = 0.9291	1.719
298.15 K, 101 kPa, x1 = 0.062	1.707
298.15 K, 101 kPa, x1 = 0.1398	1.471
298.15 K, 101 kPa, x1 = 0.295	1.132
298.15 K, 101 kPa, x1 = 0.388	0.988
298.15 K, 101 kPa, x1 = 0.4349	0.565
298.15 K, 101 kPa, x1 = 0.4661	0.887
298.15 K, 101 kPa, x1 = 0.5335	0.394
298.15 K, 101 kPa, x1 = 0.5337	0.805
298.15 K, 101 kPa, x1 = 0.6049	0.741
298.15 K, 101 kPa, x1 = 0.6086	0.4578
298.15 K, 101 kPa, x1 = 0.7128	0.657
298.15 K, 101 kPa, x1 = 0.806	0.626
298.15 K, 101 kPa, x1 = 0.89	0.604
298.15 K, 101.3 kPa, x1 = 0.1571	1.435
298.15 K, 101.3 kPa, x1 = 0.3573	1.018
298.15 K, 101.3 kPa, x1 = 0.5287	0.797
298.15 K, 101.3 kPa, x1 = 0.7516	0.637
298.15 K, 101.33 kPa, x1 = 0.1571	1.435
298.15 K, 101.33 kPa, x1 = 0.2757	1.167
298.15 K, 101.33 kPa, x1 = 0.3573	1.018
298.15 K, 101.33 kPa, x1 = 0.5287	0.797
298.15 K, 101.33 kPa, x1 = 0.6446	0.703
298.15 K, 101.33 kPa, x1 = 0.7516	0.637
298.15 K, 101.33 kPa, x1 = 0.8737	0.599
298.15 K, 101.33 kPa, x1 = 0.9369	0.592
298.15 K, 101.33 kPa, x2 = 0.2	0.622
303.15 K, 101 kPa, x1 = 0.062	1.522
303.15 K, 101 kPa, x1 = 0.1398	1.319
303.15 K, 101 kPa, x1 = 0.295	1.021
303.15 K, 101 kPa, x1 = 0.388	0.892
303.15 K, 101 kPa, x1 = 0.4661	0.808
303.15 K, 101 kPa, x1 = 0.5337	0.737
303.15 K, 101 kPa, x1 = 0.6049	0.68
303.15 K, 101 kPa, x1 = 0.7128	0.609
303.15 K, 101 kPa, x1 = 0.806	0.58
303.15 K, 101 kPa, x1 = 0.89	0.566
308.15 K, 100 kPa, x2 = 0.059	0.5422
308.15 K, 100 kPa, x2 = 0.1169	0.5507
308.15 K, 100 kPa, x2 = 0.2295	0.5825
308.15 K, 100 kPa, x2 = 0.2843	0.5616
308.15 K, 100 kPa, x2 = 0.3733	0.6014
308.15 K, 100 kPa, x2 = 0.5437	0.7483
308.15 K, 100 kPa, x2 = 0.6252	0.8508
308.15 K, 100 kPa, x2 = 0.7044	0.9663
308.15 K, 100 kPa, x2 = 0.7814	1.098
308.15 K, 100 kPa, x2 = 0.8563	1.267
308.15 K, 100 kPa, x2 = 0.9291	1.405
308.15 K, 101 kPa, x1 = 0.062	1.369
308.15 K, 101 kPa, x1 = 0.1398	1.182
308.15 K, 101 kPa, x1 = 0.295	0.921
308.15 K, 101 kPa, x1 = 0.388	0.81
308.15 K, 101 kPa, x1 = 0.4661	0.736
308.15 K, 101 kPa, x1 = 0.5337	0.678
308.15 K, 101 kPa, x1 = 0.6049	0.63
308.15 K, 101 kPa, x1 = 0.7128	0.566
308.15 K, 101 kPa, x1 = 0.806	0.541
308.15 K, 101 kPa, x1 = 0.89	0.527
308.15 K, 101.3 kPa, x1 = 0.1571	1.155
308.15 K, 101.3 kPa, x1 = 0.3573	0.834
308.15 K, 101.3 kPa, x1 = 0.5287	0.668
308.15 K, 101.3 kPa, x1 = 0.7516	0.552
308.15 K, 101.33 kPa, x1 = 0.1571	1.155
308.15 K, 101.33 kPa, x1 = 0.3573	0.834
308.15 K, 101.33 kPa, x1 = 0.5287	0.668
308.15 K, 101.33 kPa, x1 = 0.7516	0.552
313.15 K, 101 kPa, x1 = 0.062	1.225
313.15 K, 101 kPa, x1 = 0.1398	1.061
313.15 K, 101 kPa, x1 = 0.295	0.835
313.15 K, 101 kPa, x1 = 0.388	0.739
313.15 K, 101 kPa, x1 = 0.4661	0.674
313.15 K, 101 kPa, x1 = 0.5337	0.623
313.15 K, 101 kPa, x1 = 0.6049	0.582
313.15 K, 101 kPa, x1 = 0.7	0.5283
313.15 K, 101 kPa, x1 = 0.7128	0.528
313.15 K, 101 kPa, x1 = 0.806	0.503
313.15 K, 101 kPa, x1 = 0.89	0.493
318.15 K, 101 kPa, x1 = 0.062	1.103
318.15 K, 101 kPa, x1 = 0.1398	0.956
318.15 K, 101 kPa, x1 = 0.295	0.76
318.15 K, 101 kPa, x1 = 0.388	0.676
318.15 K, 101 kPa, x1 = 0.4661	0.617
318.15 K, 101 kPa, x1 = 0.5337	0.572
318.15 K, 101 kPa, x1 = 0.6049	0.539
318.15 K, 101 kPa, x1 = 0.7128	0.493
318.15 K, 101 kPa, x1 = 0.806	0.47
318.15 K, 101 kPa, x1 = 0.89	0.463
323.15 K, 101.33 kPa, x2 = 0.2	0.44

Reference: the CheMixHub viscosity set
